Data reported in patent US20070049564A1 (Wyeth, priority 2005, published 2007).
≈ marks a conversion by molar mass, not a printed value. Read-outs that look alike come from different tables or passages of the source.

Assays:
E. coli GC 2235 = assay: MIC, broth microdilution
Experimental: (§1) Antimicrobial susceptibility testing. The in vitro activities of the antibiotics are determined by the broth microdilution method as recommended by the National Committee for Clinical Laboratory Standards (NCCLS) (1). Mueller-Hinton II broth (MHBII)(BBL Cockeysville, Md.) is the medium employed in the testing procedures. Microtiter plates containing serial dilutions of each antimicrobial agent are inoculated with each organism to yield the appropriate density (10^5 CFU/ml) in a 100 μl final volume. The plates are incubated for 18-22 hours at 35° C. in ambient air.
(§2) Representative compounds were first incubated in mouse serum for an hour prior to the in vitro testing against a panel of selected gram-positive and gram-negative bacteria strains. All compounds were also pre-incubated in water for an hour prior to testing as control. Representative compounds of Formula I were incubated in human serum prior to MIC determination.

E. coli = assay: Range of MIC for E. coli strains; conditions: Escherichia coli
S. aureus GC 4536 = assay: MIC, broth microdilution
S. aureus GC 2216 = assay: MIC, broth microdilution
S. typhimurium GC 2172 = assay: MIC, broth microdilution; conditions: Salmonella enterica, TYPHIMURIUM
E. faecalis GC 4555 = assay: MIC, broth microdilution; conditions: Enterococcus faecalis
Experimental: as §1, §2

Staph. = assay: Range of MIC for Staph. strains, including MRSA; conditions: Staphylococcus aureus, MRSA
E. coli GC 2231 = assay: MIC, broth microdilution
E. faecalis GC 2242 = assay: MIC, broth microdilution
S. pneumoniae+ GC 4465 = assay: MIC, broth microdilution
E. faecium GC 4556 = assay: MIC, broth microdilution; conditions: Enterococcus faecium
Staph. aureus Smith = assay: In vivo activity (oral, iv; ED50) against Staph. aureus Smith in mice
Experimental: Representative examples of compounds of Formula I were tested for the oral efficacy using S. aureus Smith in mice.

E. coli GC 2232 = assay: MIC, broth microdilution
S. pyogenes GC 4563 = assay: MIC, broth microdilution
Experimental: Antimicrobial susceptibility testing. The in vitro activities of the antibiotics are determined by the broth microdilution method as recommended by the National Committee for Clinical Laboratory Standards (NCCLS) (1). Mueller-Hinton II broth (MHBII)(BBL Cockeysville, Md.) is the medium employed in the testing procedures. Microtiter plates containing serial dilutions of each antimicrobial agent are inoculated with each organism to yield the appropriate density (10^5 CFU/ml) in a 100 μl final volume. The plates are incubated for 18-22 hours at 35° C. in ambient air. […] Standard Pharmacological Test Procedures
Presented in Tables I-XIII are representative compounds of Formula I which were evaluated against a panel of 40 selected gram-positive and gram-negative bacteria strains by pre-incubation in water, mouse serum or human serum. Representative compounds were first incubated in mouse serum for an hour prior to the in vitro testing against a panel of selected gram-positive and gram-negative bacteria strains. All compounds were also pre-incubated in water for an hour prior to testing as control. Representative compounds of Formula I were incubated in human serum prior to MIC determination.

S. agalactiae GC 4564 = assay: MIC, broth microdilution
Experimental: as §1, §2

E. coli GC 2236 = assay: MIC, broth microdilution
S. pneumoniae* GC 4465 = assay: MIC, broth microdilution; conditions: Streptococcus pneumoniae, pre-incubation in mouse serum
S. aureus GC 6466 = assay: MIC, broth microdilution; conditions: Staphylococcus aureus, GC6466, pre-incubation in mouse serum

CCCCN(CC(=O)Nc1cc(N(C)C)c2c(c1O)C(=O)C1=C(O)[C@]3(O)C(=O)C(C(N)=O)=C(O)[C@@H](N(C)C)C3CC1C2)C(=O)OCc1oc(=O)oc1C (stereo partly drawn) [Example 109, (5-methyl-2-oxo-1,3-dioxol-4-yl)methyl 2-{[(7S,10aS)-9-(aminocarbonyl)-4,7-bis(dimethylamino)-1,8,10a,11-tetrahydroxy-10,12-dioxo-5,5a,6,6a,7,10,10a,12-octahydrotetracen-2-yl]amino}-2-oxoethyl(butyl)carbamate]
MIC (E. coli GC 2235; Escherichia coli, GC2235, pre-incubation in mouse serum): 0.25 µg/mL (≈ 0.337 µM) | MIC (E. coli GC 2235; Escherichia coli, GC2235, pre-incubation in water): 0.5 µg/mL (≈ 0.674 µM) | MIC (E. coli GC 2235; pre-incubation in mouse serum): 0.50 UG/ML | MIC (E. coli GC 2235; pre-incubation in water): 1 UG/ML | MIC (E. coli; 20 h, read-out: Range of MIC, E. coli (Mouse Serum)): 0.25 to 1 µg/mL (≈ 0.337 to 1.35 µM) | MIC (E. coli; read-out: Range of MIC, E. coli (Water)): 1 to 4 µg/mL (≈ 1.35 to 5.39 µM) | MIC (S. aureus GC 4536; Staphylococcus aureus, GC4536, pre-incubation in mouse serum): 1 µg/mL (≈ 1.35 µM) | MIC (S. aureus GC 4536; Staphylococcus aureus, GC4536, pre-incubation in water): 2 µg/mL (≈ 2.7 µM) | MIC (S. aureus GC 4536; pre-incubation in water): 4 UG/ML | MIC (S. aureus GC 2216; Staphylococcus aureus, GC2216, pre-incubation in mouse serum): 1 µg/mL (≈ 1.35 µM) | MIC (S. aureus GC 2216; pre-incubation in mouse serum): 0.50 UG/ML | MIC (S. typhimurium GC 2172; pre-incubation in mouse serum): 4 µg/mL (≈ 5.39 µM) | MIC (S. typhimurium GC 2172; pre-incubation in water): 16 µg/mL (≈ 21.6 µM) | MIC (E. faecalis GC 4555; GC4555, pre-incubation in mouse serum): 0.5 µg/mL (≈ 0.674 µM) | MIC (E. faecalis GC 4555; GC4555, pre-incubation in water): 1 µg/mL (≈ 1.35 µM) | MIC (Staph.; read-out: Range of MIC, Staph (Mouse Serum)): 0.5 to 2 µg/mL (≈ 0.674 to 2.7 µM) | MIC (Staph.; read-out: Range of MIC, Staph (Water)): 4 to 8 µg/mL (≈ 5.39 to 10.8 µM) | MIC (E. coli GC 2231; Escherichia coli, GC2231, pre-incubation in mouse serum): 0.5 µg/mL (≈ 0.674 µM) | MIC (E. coli GC 2231; Escherichia coli, GC2231, pre-incubation in water): 1 µg/mL (≈ 1.35 µM) | MIC (E. coli GC 2231; pre-incubation in mouse serum): 1 UG/ML | MIC (E. coli GC 2231; pre-incubation in water): 2 UG/ML | MIC (E. faecalis GC 2242; Enterococcus faecalis, GC2242, pre-incubation in mouse serum): 1 µg/mL (≈ 1.35 µM) | MIC (E. faecalis GC 2242; Enterococcus faecalis, GC2242, pre-incubation in water): 1 µg/mL (≈ 1.35 µM) | MIC (E. faecalis GC 2242; pre-incubation in water): 2 UG/ML | MIC (S. pneumoniae+ GC 4465; Streptococcus pneumoniae, pre-incubation in mouse serum): 1 µg/mL (≈ 1.35 µM) | MIC (S. pneumoniae+ GC 4465; Streptococcus pneumoniae, pre-incubation in water): 1 µg/mL (≈ 1.35 µM) | MIC (S. pneumoniae+ GC 4465; pre-incubation in water): 2 UG/ML | MIC (E. faecium GC 4556; GC4556, pre-incubation in mouse serum): 1 µg/mL (≈ 1.35 µM) | MIC (E. faecium GC 4556; GC4556, pre-incubation in water): 2 µg/mL (≈ 2.7 µM) | ED50 (Staph. aureus Smith; Staphylococcus aureus, in Mus musculus, po, read-out: ED50 Staph Smith SOD): 19.9 mg/kg | ED50 (Staph. aureus Smith; iv, read-out: ED50 Staph Smith SIV): 0.76 mg/kg | MIC (E. coli GC 2232; Escherichia coli, GC2232, pre-incubation in mouse serum): 0.5 µg/mL (≈ 0.674 µM) | MIC (E. coli GC 2232; Escherichia coli, GC2232, pre-incubation in water): 1 µg/mL (≈ 1.35 µM) | MIC (E. coli GC 2232; pre-incubation in water): 2 UG/ML | MIC (S. pyogenes GC 4563; Streptococcus pyogenes, GC4563, pre-incubation in mouse serum): < 0.06 µg/mL | MIC (S. pyogenes GC 4563; pre-incubation in mouse serum): 0.12 UG/ML | MIC (S. agalactiae GC 4564; Streptococcus agalactiae, GC4564, pre-incubation in mouse serum): 0.12 µg/mL (≈ 0.162 µM) | MIC (S. agalactiae GC 4564; Streptococcus agalactiae, GC4564, pre-incubation in water): 0.25 µg/mL (≈ 0.337 µM) | MIC (S. agalactiae GC 4564; pre-incubation in mouse serum): <0.06 UG/ML | MIC (E. coli GC 2236; Escherichia coli, GC2236, pre-incubation in mouse serum): 0.5 µg/mL (≈ 0.674 µM) | MIC (E. coli GC 2236; Escherichia coli, GC2236, pre-incubation in water): 1 µg/mL (≈ 1.35 µM) | MIC (E. coli GC 2236; pre-incubation in water): 2 UG/ML | MIC (S. pneumoniae* GC 4465): < 0.06 µg/mL | MIC (S. aureus GC 6466): 0.5 µg/mL (≈ 0.674 µM)
